This is an account of results in ChEMBL document CHEMBL1201862, “PubChem BioAssay data set” (2004).

Structures are written as SMILES.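 Briefly, cells in 96-well plates were exposed to five compound concentrations for 48 h, and endpoints were estimated by linear interpolation. GI50 is the concentration that inhibits growth by half.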 Calls of active or inactive are those of the source. No stated cut-off is given here; in the data, active = GI50 up to about 1.1 µM and inactive = higher. A value given as a limit tells only on which side of the number the result lay.

What all share (experiment): NCI anticancer screen, dose series, 48 h
The test system of experiment [1] is OVCAR-5.
Experiment [2] deals with SF-295.
Experiment [3] concerns U-251.
In experiment [4] the test system is SN12C.
Experiment [5] concerns DLD-1.
Experiment [6] relates to UO-31.
For experiment [7], the system named is SK-OV-3.
Experiment [8] deals with HL-60.
The test system of experiment [9] is M14.
The subject of experiment [10] is IGROV-1.
Experiment [11] deals with SK-MEL-2.
The subject of experiment [12] is SF-268.
The subject of experiment [13] is HCC 2998.
In experiment [14] the test system is A498.
In experiment [15] the test system is TK-10.
Experiment [16] deals with A549.
Experiment [17] concerns K562.
Experiment [18] concerns SNB-78.

In the case of `C=C(C)C1CC=C(C(=O)O)CC1` (centres undefined), the GI50 was 1660 µM (inactive) in experiment [1]; 1090 µM (inactive) in [2]; 1060 µM (inactive) in experiment [3]; 1570 µM (inactive) in [4]; 1490 µM (inactive) in experiment [5]; 1190 µM (inactive) in [6]. Also, the GI50 is 2070 µM (inactive) in [7]; 906 µM (inactive) in experiment [8]; 1750 µM (inactive) in [9]; 774 µM (inactive) in experiment [10]; 1170 µM (inactive) in experiment [11]; 1190 µM (inactive) in [12]. Moreover, the GI50 is 1080 µM (inactive) in [13]; 1210 µM (inactive) in [14]; 1580 µM (inactive) in experiment [15]; 1210 µM (inactive) in experiment [16]; 1200 µM (inactive) in [17].

Regarding `NC(=S)N/N=C/c1cn(CCCl)c2ccccc12`, the GI50 in [1] was 3.81 µM (inactive); in experiment [2], 13.6 µM (inactive); in experiment [4], 89.7 µM (inactive); in [5], 71.9 µM (inactive); in [6], 16.9 µM (inactive); in experiment [7], > 100 µM (inactive). For the same compound, the GI50 in experiment [8] was 9.57 µM (inactive); in [9] it was 56.4 µM (inactive); in [10], > 100 µM (inactive); in [11], 72.1 µM (inactive); in experiment [12], > 100 µM (inactive); in experiment [18], > 100 µM (inactive). The GI50 in [15] was 90.2 µM (inactive); in experiment [16], 34.9 µM (inactive); in experiment [17], 8.05 µM (inactive).

As to `Cc1ccc(Sc2ccc(C)cc2[N+](=O)[O-])c([N+](=O)[O-])c1`, the GI50 in experiment [1], in experiment [2], in [3], in experiment [4], in experiment [6] and in [7] was > 100 µM (inactive) each time. For the same compound, the GI50 in experiment [8], in experiment [9], in experiment [10], in experiment [11], in [12] and in experiment [13] was > 100 µM (inactive) in each case. Besides, the GI50 in [18], in [14], in experiment [15], in [16] and in experiment [17] was > 100 µM (inactive) throughout.

With `CC1OC(n2cc(C(F)(F)F)c(=O)[nH]c2=O)C=CC1=O` (centres undefined), the GI50 was 19.4 µM (inactive) in experiment [1]; 27.6 µM (inactive) in [2]; > 10 µM (inactive) in [3]; 23.3 µM (inactive) in experiment [4]; 18.8 µM (inactive) in experiment [5]; 18.2 µM (inactive) in [6]. Besides, the GI50 was 19.6 µM (inactive) in experiment [7]; 18.5 µM (inactive) in experiment [8]; 22.9 µM (inactive) in experiment [9]; 20 µM (inactive) in experiment [10]; 18.2 µM (inactive) in experiment [11]; 39.2 µM (inactive) in [12]. The GI50 in experiment [13] is 18.3 µM (inactive); in experiment [18], 15.8 µM (inactive); in experiment [15], 20.9 µM (inactive); in [16], 47.3 µM (inactive); in experiment [17], 27.5 µM (inactive).

With `COC(=O)C1=C(C(=O)OC)C2C(C)=CC(C)=CN2C(C#N)=C(SC)S1` (centres undefined), the GI50 in experiment [1] is 35.3 µM (inactive); in experiment [2], 31 µM (inactive); in experiment [3], 31 µM (inactive); in experiment [4], 21.4 µM (inactive); in [5], 22.6 µM (inactive); in experiment [6], 12.7 µM (inactive). Besides, the GI50 in experiment [7] was 46.3 µM (inactive); in [8], 19.5 µM (inactive); in experiment [9], 18 µM (inactive); in experiment [10], > 10 µM (inactive); in experiment [11], 23.1 µM (inactive); in experiment [12] it was 20.6 µM (inactive). Also, the GI50 in experiment [13] is 37.2 µM (inactive); in experiment [18], 41.3 µM (inactive); in experiment [15], 35.2 µM (inactive); in experiment [16] it was 37.2 µM (inactive); in experiment [17], 20.7 µM (inactive).

As to `CC12CP(=O)(c3ccccc3)CC1C2(Cl)Cl` (centres undefined), the GI50 was > 100 µM (inactive) in [2]; > 100 µM (inactive) in [3]; > 100 µM (inactive) in experiment [4]; > 100 µM (inactive) in experiment [5]; > 100 µM (inactive) in experiment [7]; > 10 µM (inactive) in experiment [8]. The GI50 in experiment [9], in [10], in experiment [13], in experiment [18], in experiment [15] and in [16] was > 100 µM (inactive) each time. Also, the GI50 in experiment [17] is > 100 µM (inactive).

On to `N#CC1(C=O)c2ccccc2C=CN1C(=O)c1ccccc1` (centres undefined), for which the GI50 in experiment [3] is 29.6 µM (inactive); in [4], 50 µM (inactive); in experiment [6], 33.3 µM (inactive); in [8] it was 17.7 µM (inactive); in experiment [9], 26.8 µM (inactive); in experiment [10], 26.9 µM (inactive). Besides, the GI50 in [11] is 61.8 µM (inactive); in experiment [12], 70.3 µM (inactive); in experiment [13], 35.8 µM (inactive); in experiment [18], 78.7 µM (inactive); in [14], 26.4 µM (inactive); in experiment [15] it was 63.5 µM (inactive). Moreover, the GI50 in experiment [16] is 76.2 µM (inactive); in experiment [17], 29.6 µM (inactive).

As to `CC(=O)Nc1c(Nc2ccccc2)[nH]c(C)nc1=S`, the GI50 in experiment [1], in experiment [2], in experiment [4], in [5], in experiment [6] and in experiment [7] was > 100 µM (inactive) throughout. Also, the GI50 in [8], in [9], in experiment [10], in [11], in [12] and in experiment [13] was > 100 µM (inactive) each time. The GI50 in experiment [18], in experiment [15], in experiment [16] and in [17] was > 100 µM (inactive) throughout.

Consider `O=C(C=P(c1ccccc1)(c1ccccc1)c1ccccc1)CC(=S)CC(=O)C=P(c1ccccc1)(c1ccccc1)c1ccccc1`, for which the GI50 was 18.2 µM (inactive) in [1]; 3.16 µM (inactive) in [2]; 2.29 µM (inactive) in experiment [3]; 3.39 µM (inactive) in experiment [4]; 4.58 µM (inactive) in experiment [5]; 29.3 µM (inactive) in experiment [6]. For the same compound, the GI50 was 3.95 µM (inactive) in experiment [7]; 1.98 µM (inactive) in experiment [8]; 4.12 µM (inactive) in experiment [9]; 4.66 µM (inactive) in experiment [10]; 5.19 µM (inactive) in experiment [12]; 3.85 µM (inactive) in experiment [13]. In addition, the GI50 in experiment [14] is 4.14 µM (inactive); in experiment [15], 7.96 µM (inactive); in [16] it was 4.17 µM (inactive); in experiment [17], 2.47 µM (inactive).

With `CC(=O)OCC1OC(N2C(=O)C(=O)c3ccccc32)C(OC(C)=O)C(OC(C)=O)C1OC(C)=O` (centres undefined), the GI50 in [2], in experiment [3], in [4], in experiment [5], in [6] and in [7] was > 100 µM (inactive) in each case. Besides, the GI50 in experiment [9], in experiment [10], in experiment [11], in [12], in experiment [13] and in experiment [14] was > 100 µM (inactive) each time. The GI50 in experiment [15], in experiment [16] and in [17] was > 100 µM (inactive) in each case.

As to `CCOC(=O)/C(C#N)=C1/C(O)=C(C(=O)OC)C(C(=O)OC)=C1C(=O)OC.c1ccncc1`, the GI50 in [1], in [2], in [3], in [4], in [5] and in experiment [6] was > 100 µM (inactive) throughout. Besides, the GI50 in experiment [7], in experiment [8], in experiment [9], in [10], in [11] and in experiment [12] was > 100 µM (inactive) in each case. For the same compound, the GI50 in experiment [13], in experiment [15], in experiment [16] and in experiment [17] was > 100 µM (inactive) in each case.

In the case of `CC[C@H]1[C@@H](C)C=C[C@@H](C)N1S(=O)(=O)c1ccc(C)cc1`, the GI50 was > 100 µM (inactive) in experiment [1]; 95.9 µM (inactive) in experiment [2]; > 100 µM (inactive) in experiment [3]; 92.7 µM (inactive) in experiment [4]; 5.26 µM (inactive) in experiment [6]; > 100 µM (inactive) in experiment [7]. Besides, the GI50 in [8] was 18.5 µM (inactive); in experiment [9], > 100 µM (inactive); in experiment [11] it was 19.8 µM (inactive); in experiment [12] it was 75 µM (inactive); in [18] it was > 100 µM (inactive); in experiment [14], > 100 µM (inactive). The results for the GI50 in [16] and in experiment [17] were > 100 µM (inactive) and 89.9 µM (inactive), respectively.

Take `Cc1ccc(-c2cc(O)c3cc4c(cc3n2)OCO4)cc1`: the GI50 in experiment [1] was 2.61 µM (inactive); in [2] it was 2.02 µM (inactive); in experiment [3] it was 1.59 µM (inactive); in experiment [4], 2.56 µM (inactive); in [5] it was 0.859 µM (active); in experiment [6] it was > 21.3 µM (inactive). Also, the GI50 was 1.45 µM (inactive) in [7]; 0.43 µM (active) in experiment [8]; 0.817 µM (active) in [9]; 3.48 µM (inactive) in experiment [10]; 1.72 µM (inactive) in [11]; 2.96 µM (inactive) in [12]. The GI50 was 1.42 µM (inactive) in experiment [13]; 0.615 µM (active) in experiment [14]; 7.66 µM (inactive) in [15]; 2.02 µM (inactive) in experiment [16]; 0.705 µM (active) in experiment [17].
